In patent publication US9232792B2, “Method for promoting plant growth” (SUMITOMO CHEMICAL COMPANY, LIMITED, priority 2011, dated 2016):

Key:
[1] = test system: Corn (cultivar: Kuromochi); assay: Test Example 5: reduction of low-temperature stress by treatment of corn seeds; type: in vivo; conditions: 2.5±1° C. for 4 days, then 4 days at 27° C.
Protocol: Corn (cultivar: Kuromochi) A blank slurry solution containing 10% (V/V) color coat red (Becker Underwood, Inc.), 10% (V/V) CF-Clear (Becker Underwood, Inc.) and 1.66% Maxim 4FS (Syngenta) was prepared. A slurry solution was prepared by dissolving the present compound 1 in the blank slurry solution such that 0.5 g, 5 g or 50 g of the compound is applied to each 100 kg of corn seeds. In a 50-ml centrifuge tube (manufactured by BD Japan), 0.35 ml of the slurry solution was placed for each 14.4 g of corn seeds and stirred until the solution was dried, thereby coating the seeds. In addition, seeds were coated with the blank slurry solution and used as seeds for a non-treated group. One of the treated corn seeds was sown in culture soil (AISAI) in each pot (55 mm in diameter×58 mm in height) and cultivated for 10 days under the conditions of a temperature of 27° C., an illuminance of 5,000 lux, and a day length of 16 hours. The grown seedlings were used for the test. The pots at 10 days after the sowing were placed into an artificial weather control room (VHT-2-[…]-NC2-S, manufactured by Nippon Medical & Chemical Instruments Co., Ltd) and cultivated for 4 days under the following conditions: -temperature: 2.5±1° C., day length: 16 hours, and illuminance: 5,000 lux. After the low-temperature stress treatment, the plants were cultivated for 4 days under the conditions of a temperature of 27° C., an illuminance of 5,000 lux, and a day length of 16 hours. Then, the fresh weight of the overground part of the plants was measured. The experiment was performed in four replications for each treatment condition and the average weight per individual was calculated. As a result, the fresh weight of the overground part of plants in the treated group of applying 0.5 g, 5 g or 50 g of the present compound 1 to each 100 kg of seeds was much heavier than that in the non-treated group.

[2] = test system: Tobacco (Nicotiana benthamiana); assay: Test Example 4: reduction of low-temperature stress in hydroponics of tobacco; type: in vivo; conditions: 10 ppm in medium; 1.5±1.0° C. for 7 days, then 3 days at 22° C.
Protocol: Tobacco (Nicotiana benthamiana)
DMSO solutions containing each of the present compounds 1 to 4 at a concentration of 10,000 ppm were prepared. A 1/1,000 volume of each DMSO solution was added to a Murashige-and-Skoog medium (a medium containing 2.3 g of a mixture of salts for Murashige-and-Skoog medium (manufactured by Wako. Pure Chemical Industries, Ltd.), 200 mg of myoinositol (manufactured by Sigma-Aldrich), 2 mg of nicotinic acid (manufactured by Wako Pure Chemical Industries, Ltd.), 2 mg of pyridoxine hydrochloride (manufactured by Wako Pure Chemical Industries, Ltd.), 20 mg of thiamine hydrochloride (manufactured by Wako Pure Chemical Industries, Ltd.), 20 g of sucrose (manufactured by Wako Pure Chemical Industries, Ltd.), 1 g of MES (manufactured by DOJINDO LABORATORIES) in 1 L of water, adjusted to pH 5.8) at ½ concentration to obtain a medium containing the test compound at a concentration of 10 ppm. These media were used in the treated-group.
In a non-treated group, a medium obtained by adding a 1/1,000 volume of DMSO to a Murashige-and-Skoog medium at ½ concentration was used.
The seeds of tobacco (Nicotiana benthamiana) were sown on 5 μL of the medium, and incubated at 22° C. overnight. Thereto was added 45 μL of a medium containing each present compound at a concentration of 10 ppm, and cultivated for 7 days under the conditions of an illuminance of 4,000 lux, a temperature of 22° C. and a day length of 16 hours, thereby treating the seedlings of tobacco (Nicotiana benthamiana) with the test compound.
In the non-treated group, 45 μL of a medium obtained by adding a 1/1,000 volume of DMSO to a Murashige-and-Skoog medium at ½ concentration was added, and treated in the same manner as above.
The seedlings of tobacco (Nicotiana benthamiana) treated with the present compounds were cultivated for 7 days under the conditions of an illuminance of 2,000 lux, a temperature of 1.5±1.0° C., and a day length of 16 hours, thereby subjecting to low-temperature stress treatment.
The plants of tobacco (Nicotiana benthamiana) subjected to low-temperature stress treatment was cultivated for 3 days under the conditions of an illuminance of 4,000 lux, a temperature of 22° C., and a day length of 16 hours, and then the green leaf area of the plants was visually evaluated. Completely dead plant was scored as 0, the plant without low-temperature stress treatment was scored as 5, the green area was rated on a 6-point scale in ⅕ increments, and the score of not less than 1 was regarded as effective in reducing the stress. As a result of visual evaluation, the green leaf area of plants in the treated group, wherein the plants were treated with the present compound 1, 2, 3 or 4 was much larger than that in the non-treated group.

O=C(O)c1cc2cc(C(F)(F)F)ccc2s1 [The present compound 1, 5-(trifluoromethyl)benzo[b]thiophene-2-carboxylic acid]
fresh weight of the overground part of plants vs non-treated group ([1]; seed treatment 0.5 g per 100 kg of seeds): much heavier | fresh weight of the overground part of plants vs non-treated group ([1]; seed treatment 5 g per 100 kg of seeds): much heavier | fresh weight of the overground part of plants vs non-treated group ([1]; seed treatment 50 g per 100 kg of seeds): much heavier | green leaf area of plants (visual evaluation) vs non-treated group [2]: much larger
